Source: ChEMBL document CHEMBL3045678, “Synthesis of Some New Antimicrobial Thiadiazolyl and Oxadiazolyl Quinoline Derivatives” (2005)
Values after ≈ are worked out from the molar mass of the structure shown. Active and inactive are the calls of the source. The calls are words filed in the database; no cut-off is given here.

Columns and labels:
Assay type in all cases: functional
Staphylococcus aureus [1] = assay: Antimicrobial activity against Staphylococcus aureus ATCC 6538p at 1 mg/ml after 24 hr by cup diffusion technique; details: for zone of inhibition at 1000 µg/mL: read-out: DIZ
Pseudomonas aeruginosa [2] = assay: Antimicrobial activity against Pseudomonas aeruginosa ATCC 9027 at 1 mg/ml after 24 hr by cup diffusion technique; details: for zone of inhibition at 1000 µg/mL: ATCC 9027, 24 h, read-out: DIZ
Candida albicans [3] = assay: Antimicrobial activity against Candida albicans ATCC 10231 at 1 mg/ml after 24 hr by cup diffusion technique; details: ATCC 10231, 24 h, read-out: DIZ
Escherichia coli = assay: Antimicrobial activity against Escherichia coli NCTC 10418 at 1 mg/ml after 24 hr by cup diffusion technique; details: NCTC 10418, 24 h, read-out: DIZ
Candida albicans [4] = assay: Antimicrobial activity against Candida albicans ATCC 10231 after 48 hr by two-fold dilution method; details: ATCC 10231, 48 h
Staphylococcus aureus [5] = assay: Antimicrobial activity against Staphylococcus aureus ATCC 6538p after 24 hr by two-fold dilution method
Pseudomonas aeruginosa [6] = assay: Antimicrobial activity against Pseudomonas aeruginosa ATCC 9027 after 24 hr by two-fold dilution method; details: ATCC 9027, 24 h

SMILES	zone of inhibition at 1000 µg/mL (Staphylococcus aureus [1])	zone of inhibition at 1000 µg/mL (Pseudomonas aeruginosa [2])	zone of inhibition at 1000 µg/mL (Candida albicans [3])	zone of inhibition at 1000 µg/mL (Escherichia coli)	MBC (Candida albicans [4])	MIC (Candida albicans [4])	diameter of the inhibition zone (DIZ) (Pseudomonas aeruginosa [2])	MBC (Staphylococcus aureus [5])	MIC (Staphylococcus aureus [5])	MBC (Pseudomonas aeruginosa [6])	MIC (Pseudomonas aeruginosa [6])	diameter of the inhibition zone (DIZ) (Staphylococcus aureus [1])
O=C(Nc1nnc(SCc2ccccc2)s1)c1ccnc2ccccc12	15 mm	17 mm	19 mm	18 mm	–	–	–	–	–	–	–	–
Cc1cc(C(=O)Nc2nnc(SCc3ccccc3)s2)c2ccccc2n1	15 mm	17 mm	24 mm	18 mm	250 µg/mL (≈ 637 µM)	250 µg/mL (≈ 637 µM)	–	–	–	–	–	–
Cc1cc(-c2nnc(S(=O)(=O)Cc3ccccc3)o2)c2ccccc2n1	16 mm	–	19 mm	18 mm	–	–	inactive	–	–	–	–	–
Cc1cc(-c2nnc(SCc3ccccc3)o2)c2ccccc2n1	13 mm	–	19 mm	18 mm	–	–	inactive	–	–	–	–	–
O=C(Nc1nnc(S(=O)(=O)Cc2ccccc2)s1)c1ccnc2ccccc12	27 mm	20 mm	19 mm	18 mm	–	–	–	500 µg/mL (≈ 1220 µM)	125 µg/mL (≈ 305 µM)	> 500 µg/mL	62.5 µg/mL (≈ 152 µM)	–
Cc1cc(-c2nnc(S(C)(=O)=O)o2)c2ccccc2n1	19 mm	13 mm	27 mm	18 mm	125 µg/mL (≈ 432 µM)	31.2 µg/mL (≈ 108 µM)	–	–	–	–	–	–
CCS(=O)(=O)c1nnc(NC(=O)c2cc(C)nc3ccccc23)s1	13 mm	13 mm	18 mm	17 mm	–	–	–	–	–	–	–	–
CCSc1nnc(NC(=O)c2cc(C)nc3ccccc23)s1	17 mm	14 mm	18 mm	18 mm	–	–	–	–	–	–	–	–
CCS(=O)(=O)c1nnc(NC(=O)c2cc(-c3ccccc3)nc3ccccc23)s1	31 mm	15 mm	19 mm	19 mm	–	–	–	125 µg/mL (≈ 294 µM)	125 µg/mL (≈ 294 µM)	–	–	–
CCSc1nnc(-c2cc(-c3ccccc3)nc3ccccc23)o1	–	15 mm	19 mm	18 mm	–	–	–	–	–	–	–	inactive
CCSc1nnc(NC(=O)c2cc(-c3ccccc3)nc3ccccc23)s1	15 mm	20 mm	18 mm	19 mm	–	–	–	–	–	500 µg/mL (≈ 1270 µM)	62.5 µg/mL (≈ 159 µM)	–
O=C(Nc1nnc(SCc2ccccc2)s1)c1cc(-c2ccccc2)nc2ccccc12	13 mm	15 mm	18 mm	16 mm	–	–	–	–	–	–	–	–
CCS(=O)(=O)c1nnc(NC(=O)c2ccnc3ccccc23)s1	20 mm	20 mm	19 mm	19 mm	–	–	–	> 500 µg/mL	125 µg/mL (≈ 359 µM)	125 µg/mL (≈ 359 µM)	125 µg/mL (≈ 359 µM)	–
CSc1nnc(NC(=O)c2ccnc3ccccc23)s1	17 mm	15 mm	19 mm	18 mm	–	–	–	–	–	–	–	–
c1ccc(CSc2nnc(-c3cc(-c4ccccc4)nc4ccccc34)o2)cc1	13 mm	–	18 mm	18 mm	–	–	inactive	–	–	–	–	–
